Test results: US11691980B2, “Liphagal analog and multi-targeted kinase inhibitor containing liphagal or analog thereof” (TOHOKU UNIVERSITY, priority 2017, dated 2023)

Columns and labels:
Type in all cases: biochemical
CSK = biological target: T1, CSK (Homo sapiens, UniProt P41240); assay: mobility shift assay
T1 construct: purchased Carna Biosciences

PDK1 = biological target: T2, PDK1 (Homo sapiens, UniProt O15530); assay: mobility shift assay
T2 construct: purchased Carna Biosciences

FGFR3(K650M) = biological target: T3, FGFR3(K650M) (Homo sapiens, UniProt P22607, K650M); assay: mobility shift assay
T3 construct: purchased Carna Biosciences

FGR3(K650E) = biological target: T4, FGR3(K650E) (Homo sapiens, UniProt P22607, K650E); assay: mobility shift assay
T4 construct: purchased Carna Biosciences

EGFR(T790/L858R) = biological target: T5, EGFR(T790/L858R) (Homo sapiens, UniProt P00533, L858R/T790M); assay: mobility shift assay
T5 construct: purchased Carna Biosciences

JAK1 = biological target: T6, JAK1 (Homo sapiens, UniProt P23458); assay: mobility shift assay
T6 construct: purchased Carna Biosciences

PKCβ2 = biological target: T7, PKCβ2 (Homo sapiens, UniProt P05771); assay: mobility shift assay
T7 construct: purchased Carna Biosciences

PAK2 = biological target: T8, PAK2 (Homo sapiens, UniProt Q13177); assay: mobility shift assay
T8 construct: purchased Carna Biosciences

MUSK = biological target: T9, MUSK (Homo sapiens, UniProt O15146); assay: mobility shift assay
T9 construct: purchased Carna Biosciences

CDK7/CycHMAT1 [1] = biological target: T10, CDK7/CycHMAT1 (Homo sapiens, UniProt P50613); assay: mobility shift assay; design: purchased Carna Biosciences
CK1γ2 = biological target: T11, CK1γ2 (Homo sapiens, UniProt P78368); assay: mobility shift assay
T11 construct: purchased Carna Biosciences

HER2 = biological target: T12, HER2 (Homo sapiens, UniProt P04626); assay: mobility shift assay
T12 construct: purchased Carna Biosciences

NEK2 = biological target: T13, NEK2 (Homo sapiens, UniProt P51955); assay: mobility shift assay
T13 construct: purchased Carna Biosciences

PKD2 = biological target: T14, PKD2 (Homo sapiens, UniProt Q9BZL6); assay: mobility shift assay
T14 construct: purchased Carna Biosciences

CaMK2β = biological target: T15, CaMK2β (Homo sapiens, UniProt Q13554); assay: mobility shift assay
T15 construct: purchased Carna Biosciences

MRCKβ = biological target: T16, MRCKβ (Homo sapiens, UniProt Q9Y5S2); assay: mobility shift assay
T16 construct: purchased Carna Biosciences

MSK2 = biological target: T17, MSK2 (Homo sapiens, UniProt O75676); assay: mobility shift assay
T17 construct: purchased Carna Biosciences

MST3 = biological target: T18, MST3 (Homo sapiens, UniProt Q9Y6E0); assay: mobility shift assay
T18 construct: purchased Carna Biosciences

CDK7/CycHMAT1 [2] = biological target: T10, CDK7/CycHMAT1; assay: IC50 by mobility shift assay; settings: Table 2, mobility shift assay; read-out: IC50 (μM), Kinase CDK7/CycH/MAT1
Text: (§1) The compounds produced in Production Examples described above were each assessed for its inhibitory activity against CDK7, PIM2, and PI3K by mobility shift assay. In addition, a combination showing the highest inhibitory activity against each kinase is indicated by italics.

PIM2 = PIM2 (Homo sapiens, UniProt Q9P1W9); assay: IC50 by mobility shift assay; settings: Table 2, mobility shift assay; read-out: IC50 (μM), Kinase PIM2
Text: as §1

KDR = biological target: T19, KDR (Homo sapiens, UniProt P35968); assay: mobility shift assay
T19 construct: purchased Carna Biosciences

PLK3 = biological target: T20, PLK3 (Homo sapiens, UniProt Q9H4B4); assay: mobility shift assay
T20 construct: purchased Carna Biosciences

Nuak2 = biological target: T21, Nuak2 (Homo sapiens, UniProt Q9H093); assay: mobility shift assay
T21 construct: purchased Carna Biosciences

AXL = biological target: T22, AXL (Homo sapiens, UniProt P30530); assay: mobility shift assay
T22 construct: purchased Carna Biosciences

PDGF Ru(DB42V) = biological target: T23, PDGF Ru(DB42V) (Homo sapiens, UniProt P16234, D842V); assay: mobility shift assay
T23 construct: purchased Carna Biosciences

RSK2 = biological target: T24, RSK2 (Homo sapiens, UniProt P51812); assay: mobility shift assay
T24 construct: purchased Carna Biosciences

ROS = biological target: T25, ROS (Homo sapiens, UniProt P08922); assay: mobility shift assay
T25 construct: purchased Carna Biosciences

M88K1 = biological target: T26, M88K1 (Homo sapiens, UniProt Q9UPE1); assay: mobility shift assay
T26 construct: purchased Carna Biosciences

NEK1 = biological target: T27, NEK1 (Homo sapiens, UniProt Q96PY6); assay: mobility shift assay
T27 construct: purchased Carna Biosciences

EGFR(α746-750) = biological target: T28, EGFR(α746-750) (Homo sapiens, UniProt P00533, DEL746-750); assay: mobility shift assay
T28 construct: purchased Carna Biosciences

MET(Y1235D) = biological target: T29, MET(Y1235D) (Homo sapiens, UniProt P08581, Y1235D); assay: mobility shift assay
T29 construct: purchased Carna Biosciences

AKT3 = biological target: T30, AKT3 (Homo sapiens, UniProt Q9Y243); assay: mobility shift assay
T30 construct: purchased Carna Biosciences

p38B = biological target: T31, p38B (Homo sapiens, UniProt Q15759); assay: mobility shift assay
T31 construct: purchased Carna Biosciences

PHKG2 = biological target: T32, PHKG2 (Homo sapiens, UniProt P15735); assay: mobility shift assay
T32 construct: purchased Carna Biosciences

MAP3K1_Cascade = biological target: T33, MAP3K1_Cascade (Homo sapiens, UniProt Q13233); assay: mobility shift assay
T33 construct: purchased Carna Biosciences

SRPK1 = biological target: T34, SRPK1 (Homo sapiens, UniProt Q96SB4); assay: IMAP Assay
T34 construct: purchased Carna Biosciences

JAK2 = biological target: T35, JAK2 (Homo sapiens, UniProt O60674); assay: mobility shift assay
T35 construct: purchased Carna Biosciences

CaMK2δ = biological target: T36, CaMK2δ (Homo sapiens, UniProt Q13557); assay: mobility shift assay
T36 construct: purchased Carna Biosciences

MAP2K4 Cascade = assay: mobility shift assay; settings: 10 μM

T10 sequence (P50613 whole entry): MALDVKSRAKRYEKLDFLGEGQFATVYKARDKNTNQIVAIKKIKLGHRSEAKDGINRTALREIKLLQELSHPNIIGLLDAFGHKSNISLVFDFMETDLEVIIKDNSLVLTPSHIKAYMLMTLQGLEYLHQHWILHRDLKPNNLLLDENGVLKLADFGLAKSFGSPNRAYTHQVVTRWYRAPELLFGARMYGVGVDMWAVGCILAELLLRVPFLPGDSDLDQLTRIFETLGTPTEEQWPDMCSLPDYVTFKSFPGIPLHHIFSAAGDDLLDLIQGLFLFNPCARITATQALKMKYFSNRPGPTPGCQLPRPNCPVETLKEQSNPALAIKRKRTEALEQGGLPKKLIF
T10 sequence (P51946 whole entry partner): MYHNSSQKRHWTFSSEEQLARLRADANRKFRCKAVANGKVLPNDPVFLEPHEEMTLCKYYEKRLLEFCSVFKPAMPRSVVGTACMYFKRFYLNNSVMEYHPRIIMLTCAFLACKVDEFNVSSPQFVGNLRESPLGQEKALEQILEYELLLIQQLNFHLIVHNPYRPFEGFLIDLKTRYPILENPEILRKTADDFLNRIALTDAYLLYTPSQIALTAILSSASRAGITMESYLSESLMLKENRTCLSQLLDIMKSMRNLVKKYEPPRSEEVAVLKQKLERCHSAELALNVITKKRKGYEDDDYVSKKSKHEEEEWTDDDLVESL
T10 sequence (P51948 whole entry partner): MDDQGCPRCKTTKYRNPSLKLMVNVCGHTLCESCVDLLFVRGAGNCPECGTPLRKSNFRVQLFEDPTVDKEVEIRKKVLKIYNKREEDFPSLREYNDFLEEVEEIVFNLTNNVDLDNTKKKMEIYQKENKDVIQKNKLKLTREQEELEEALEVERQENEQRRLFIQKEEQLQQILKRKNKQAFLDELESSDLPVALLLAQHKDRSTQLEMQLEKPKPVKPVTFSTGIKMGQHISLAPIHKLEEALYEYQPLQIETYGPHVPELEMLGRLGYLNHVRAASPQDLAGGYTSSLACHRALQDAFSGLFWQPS
T28 sequence (P00533 with tags, fused parts or gaps DEL746-750 limits assumed): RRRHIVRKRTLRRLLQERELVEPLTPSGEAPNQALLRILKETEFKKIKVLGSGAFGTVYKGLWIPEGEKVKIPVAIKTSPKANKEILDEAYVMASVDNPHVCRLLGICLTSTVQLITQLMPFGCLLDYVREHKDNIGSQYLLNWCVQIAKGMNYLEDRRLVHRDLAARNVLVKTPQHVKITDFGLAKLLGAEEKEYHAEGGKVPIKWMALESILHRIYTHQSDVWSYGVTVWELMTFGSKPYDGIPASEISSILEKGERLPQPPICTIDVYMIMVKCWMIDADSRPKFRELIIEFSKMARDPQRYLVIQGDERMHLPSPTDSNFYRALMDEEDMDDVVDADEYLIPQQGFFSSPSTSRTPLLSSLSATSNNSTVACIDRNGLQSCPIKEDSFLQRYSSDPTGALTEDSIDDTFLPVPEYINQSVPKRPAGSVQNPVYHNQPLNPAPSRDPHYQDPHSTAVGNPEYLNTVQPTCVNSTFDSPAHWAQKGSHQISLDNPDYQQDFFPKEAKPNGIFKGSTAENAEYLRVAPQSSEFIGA
T14 sequence (Q9BZL6 whole entry): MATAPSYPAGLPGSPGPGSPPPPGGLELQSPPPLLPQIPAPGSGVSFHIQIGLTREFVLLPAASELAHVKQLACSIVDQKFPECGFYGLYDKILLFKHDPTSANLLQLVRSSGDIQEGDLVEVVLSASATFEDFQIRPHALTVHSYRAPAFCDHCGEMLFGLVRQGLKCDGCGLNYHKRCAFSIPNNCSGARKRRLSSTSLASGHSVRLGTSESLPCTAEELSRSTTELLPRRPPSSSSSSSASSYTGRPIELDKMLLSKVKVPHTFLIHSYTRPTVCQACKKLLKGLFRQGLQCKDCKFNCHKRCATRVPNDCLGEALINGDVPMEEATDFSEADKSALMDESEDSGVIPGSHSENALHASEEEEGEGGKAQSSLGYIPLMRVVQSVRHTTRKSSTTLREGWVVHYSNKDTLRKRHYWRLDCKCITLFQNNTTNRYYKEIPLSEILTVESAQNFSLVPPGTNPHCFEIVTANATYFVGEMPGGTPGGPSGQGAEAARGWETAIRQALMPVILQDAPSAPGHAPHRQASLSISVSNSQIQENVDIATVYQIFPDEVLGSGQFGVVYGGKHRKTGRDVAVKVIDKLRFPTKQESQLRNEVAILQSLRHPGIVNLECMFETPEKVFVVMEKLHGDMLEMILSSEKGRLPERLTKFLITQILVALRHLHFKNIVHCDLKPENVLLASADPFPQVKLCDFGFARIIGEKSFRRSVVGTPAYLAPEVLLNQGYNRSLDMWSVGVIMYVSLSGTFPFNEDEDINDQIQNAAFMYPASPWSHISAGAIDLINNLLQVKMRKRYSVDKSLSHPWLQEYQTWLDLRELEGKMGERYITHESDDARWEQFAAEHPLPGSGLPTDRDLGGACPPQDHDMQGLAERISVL
T20 sequence (Q9H4B4 whole entry): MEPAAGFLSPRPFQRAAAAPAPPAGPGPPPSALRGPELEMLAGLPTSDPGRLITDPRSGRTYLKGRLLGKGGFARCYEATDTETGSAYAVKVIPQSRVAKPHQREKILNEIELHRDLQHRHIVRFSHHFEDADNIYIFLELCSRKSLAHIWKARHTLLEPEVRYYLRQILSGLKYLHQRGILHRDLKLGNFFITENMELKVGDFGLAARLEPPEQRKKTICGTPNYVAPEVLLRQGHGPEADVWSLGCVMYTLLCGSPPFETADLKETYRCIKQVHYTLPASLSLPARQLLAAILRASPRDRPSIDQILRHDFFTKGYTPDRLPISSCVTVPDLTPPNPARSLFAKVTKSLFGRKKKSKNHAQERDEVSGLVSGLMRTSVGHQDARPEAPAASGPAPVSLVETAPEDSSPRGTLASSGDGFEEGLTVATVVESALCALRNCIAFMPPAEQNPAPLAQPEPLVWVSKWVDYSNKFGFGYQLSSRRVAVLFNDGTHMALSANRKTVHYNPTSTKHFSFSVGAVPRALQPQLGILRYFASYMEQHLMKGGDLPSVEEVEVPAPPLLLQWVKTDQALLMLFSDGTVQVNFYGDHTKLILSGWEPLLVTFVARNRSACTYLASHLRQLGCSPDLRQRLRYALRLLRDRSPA
T7 sequence (P05771 1-673 isoform P05771-2): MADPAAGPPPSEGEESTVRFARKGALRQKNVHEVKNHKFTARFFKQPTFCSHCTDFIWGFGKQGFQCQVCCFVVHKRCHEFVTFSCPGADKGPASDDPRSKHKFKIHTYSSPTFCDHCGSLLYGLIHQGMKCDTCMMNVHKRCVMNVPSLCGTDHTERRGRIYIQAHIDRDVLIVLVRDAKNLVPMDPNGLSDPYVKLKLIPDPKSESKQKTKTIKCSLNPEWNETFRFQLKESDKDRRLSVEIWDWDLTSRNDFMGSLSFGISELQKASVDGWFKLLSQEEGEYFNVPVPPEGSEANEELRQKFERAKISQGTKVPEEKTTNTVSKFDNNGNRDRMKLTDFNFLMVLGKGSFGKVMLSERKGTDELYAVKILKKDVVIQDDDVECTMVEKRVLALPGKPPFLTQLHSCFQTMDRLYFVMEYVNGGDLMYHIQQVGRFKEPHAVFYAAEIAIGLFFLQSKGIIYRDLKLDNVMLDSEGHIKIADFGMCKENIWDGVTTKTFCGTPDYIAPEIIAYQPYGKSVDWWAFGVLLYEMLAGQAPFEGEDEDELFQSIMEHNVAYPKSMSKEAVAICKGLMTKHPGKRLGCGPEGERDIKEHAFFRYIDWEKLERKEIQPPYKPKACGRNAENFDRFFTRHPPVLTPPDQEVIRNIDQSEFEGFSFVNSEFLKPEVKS
T19 sequence (P35968 20-1356): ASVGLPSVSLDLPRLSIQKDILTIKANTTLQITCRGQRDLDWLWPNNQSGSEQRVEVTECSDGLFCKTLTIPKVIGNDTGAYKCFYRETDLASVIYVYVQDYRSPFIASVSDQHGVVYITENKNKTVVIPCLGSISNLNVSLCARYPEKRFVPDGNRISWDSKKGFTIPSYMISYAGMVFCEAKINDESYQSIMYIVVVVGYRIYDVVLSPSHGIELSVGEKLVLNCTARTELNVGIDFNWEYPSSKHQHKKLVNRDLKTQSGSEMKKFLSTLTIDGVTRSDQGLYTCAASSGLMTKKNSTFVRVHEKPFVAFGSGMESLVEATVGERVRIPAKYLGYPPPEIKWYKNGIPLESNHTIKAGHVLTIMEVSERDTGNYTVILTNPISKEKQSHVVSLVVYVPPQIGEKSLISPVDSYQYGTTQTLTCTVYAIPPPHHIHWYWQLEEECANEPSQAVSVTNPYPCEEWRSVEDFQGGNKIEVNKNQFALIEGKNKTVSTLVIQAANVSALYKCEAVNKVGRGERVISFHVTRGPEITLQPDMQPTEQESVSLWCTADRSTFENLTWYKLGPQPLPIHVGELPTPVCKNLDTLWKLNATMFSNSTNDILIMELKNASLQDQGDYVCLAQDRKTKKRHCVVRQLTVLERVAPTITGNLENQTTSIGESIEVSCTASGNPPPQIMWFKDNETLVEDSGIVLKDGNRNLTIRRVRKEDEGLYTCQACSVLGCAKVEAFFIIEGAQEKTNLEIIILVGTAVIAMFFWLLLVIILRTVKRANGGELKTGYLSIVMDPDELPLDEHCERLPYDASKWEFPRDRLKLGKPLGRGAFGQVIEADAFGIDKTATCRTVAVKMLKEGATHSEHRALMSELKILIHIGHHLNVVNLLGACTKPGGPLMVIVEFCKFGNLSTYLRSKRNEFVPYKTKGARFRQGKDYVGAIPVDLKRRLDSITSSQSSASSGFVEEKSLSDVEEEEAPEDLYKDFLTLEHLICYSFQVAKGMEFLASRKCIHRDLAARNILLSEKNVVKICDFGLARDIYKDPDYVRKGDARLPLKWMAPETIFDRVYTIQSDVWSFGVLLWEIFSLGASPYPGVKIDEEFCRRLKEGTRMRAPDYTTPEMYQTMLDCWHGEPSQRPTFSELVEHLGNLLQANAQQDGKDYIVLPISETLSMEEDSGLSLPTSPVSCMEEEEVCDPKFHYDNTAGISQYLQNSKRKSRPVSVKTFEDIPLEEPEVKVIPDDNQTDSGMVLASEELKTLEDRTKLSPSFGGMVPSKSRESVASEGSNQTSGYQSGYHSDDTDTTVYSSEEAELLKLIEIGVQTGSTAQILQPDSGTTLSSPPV

With `C[C@@H]1CC[C@H]2C(C)(C)CCC[C@]2(C)c2c1oc1c(C=O)c(O)c(O)cc21` [LG-1, liphagal] the inhibition at 10 µM (CSK) was 7.2%, the inhibition at 10 µM (PDK1) was -97.8% and the inhibition at 10 µM (FGFR3(K650M)) was -3.6%. The inhibition at 10 µM (FGR3(K650E)) was -8.4%, the inhibition at 10 µM (EGFR(T790/L858R)) was -2.2% and the inhibition at 10 µM (JAK1) was 14.9%. The inhibition at 10 µM (PKCβ2) was -13.2%, the inhibition at 10 µM (PAK2) was 12.4% and the inhibition at 10 µM (MUSK) was -8.4%. For the same molecule, the inhibition at 10 µM (CDK7/CycHMAT1 [1]; CDK7/CycHMAT1) was 85.8%, the “inhibitory activity against CDK7” value (CDK7/CycHMAT1 [1]; in words, 10 μM) was “Potent inhibitory activity” and the inhibition at 10 µM (CK1γ2) was -2.8%. It also gave an inhibition at 10 µM (HER2) of -1.6%, an inhibition at 10 µM (NEK2) of 3.5% and an inhibition at 10 µM (PKD2) of 2.8%. It also gave an inhibition at 10 µM (CaMK2β) of 1.9%, an inhibition at 10 µM (MRCKβ) of -1.9% and an inhibition at 10 µM (MSK2) of -11.7%. It also gave an inhibition at 10 µM (MST3) of 62.7%, an IC50 (CDK7/CycHMAT1 [2]) of 1.27 µM and an IC50 (PIM2) of 5.31 µM. For the same molecule, the inhibition at 10 µM (KDR) was -1.1%, the inhibition at 10 µM (PLK3) was 31.1% and the inhibition at 10 µM (Nuak2) was 1.5%. For the same molecule, the inhibition at 10 µM (AXL) was -4.2%, the inhibition at 10 µM (PDGF Ru(DB42V)) was 1.5% and the inhibition at 10 µM (RSK2) was 14.5%. For the same molecule, the inhibition at 10 µM (ROS) was 8.6%, the inhibition at 10 µM (M88K1) was 9.3% and the inhibition at 10 µM (NEK1) was 13.9%. The inhibition at 10 µM (EGFR(α746-750)) was -5.1%, the inhibition at 10 µM (MET(Y1235D)) was 5% and the inhibition at 10 µM (AKT3) was 3.3%. For the same molecule, the inhibition at 10 µM (p38B) was 9.1%, the inhibition at 10 µM (PHKG2) was 1.5% and the inhibition at 10 µM (MAP3K1_Cascade) was 26.4%. It also gave an inhibition at 10 µM (SRPK1) of 28.2%, an inhibition at 10 µM (JAK2) of -0.7% and an inhibition at 10 µM (CaMK2δ) of 7.7%. The “% Inhibition” value (MAP2K4 Cascade) was 9.1%.
